The values that follow come from US12692265B2, “Solid state forms of Ensifentrine and process for preparation thereof” (ASSIA CHEMICAL INDUSTRIES LTD., priority 2021, dated 2026).

Common to all, as to assay type: physicochemical
A short description of data set [1]: Grinding experiments (strong grinding, solvent drop grinding; XRPD). The settings on record: for XRPD analysis results: 2 minutes. The method, then:
(§1) X-ray diffraction was performed on X-Ray powder diffractometer: • Bruker D8 Advance; CuKα radiation (λ=1.5418 Å); Lynx eye detector; laboratory temperature 22-25° C.; PMMA specimen holder ring with silicon low background. Prior to analysis, the samples were gently ground by means of mortar and pestle in order to obtain a fine powder. The ground sample was adjusted into a cavity of the sample holder and the surface of the sample was smoothed by means of a cover glass. Measurement Parameters: • Scan range: 2-40 degrees 2-theta; • Scan mode: continuous; • Step size: 0.05 degrees; • Time per step: 0.5 s; • Sample spin: 30 rpm; • Sample holder: PMMA specimen holder ring with silicon low background.
Samples of Ensifentrine ethane-1,2-disulfonate form ES2 were subjected to strong grinding, and to solvent drop grinding in water and ethanol. Grinding was carried out on the samples alone, or in the presence of ethanol or water. In these experiments, about 20 mg of the sample is placed in a mortar and ground with a pestle for 2 minutes. The solvent, when used, as added to the crystalline material before grinding, in a volume of 10 microlitres. XRPD analysis performed on each of the samples after the grinding experiment, confirmed no change in the starting material (Table 3): […]

The nature of data set [2]: Thermal stability (heating, XRPD). To be noted: heating up to 100° C. for 30 minutes. Here is the method: as §1
XRPD analysis of the sample confirmed no change in the starting material (Table 4): […]

The nature of data set [3]: Storage stability at different relative humidities and temperatures, 6 months (XRPD). The method, then:
as §1
Samples of Ensifentrine ethane-1,2-disulfonate form ES2 were subjected to conditions of different relative humidities at different temperatures. XRPD analysis was performed on the samples after 6 months.

Regarding Ensifentrine ethane-1,2-disulfonate, the XRPD analysis results was “No change” in data set [1] (Solvent-drop grinding (ethanol), 10 microlitres); “No change” in data set [1] (Solvent-drop grinding (water), 10 microlitres); “No change” in data set [1] (Strong grinding, about 20 mg, mortar and pestle); “No change” in data set [3] (25° C., 60% RH); “No change” in data set [3] (40° C., 75% RH). Besides, the “XRPD analysis after the grinding experiment” value in data set [1] (each of the samples: alone, with ethanol, with water) is reported as “no change”. In data set [2], the “XRPD analysis after heating” value was “no change”.
